Molecular target: T1, human bitter receptor TAS2R39 (Homo sapiens, UniProt P59534)
T1 construct: expressed in transfected cells; host or cells: HEK293 (tetracycline/doxycycline-inducible expression; blasticidin, geneticin and hygromycin selection)
T1 sequence (P59534 1-338): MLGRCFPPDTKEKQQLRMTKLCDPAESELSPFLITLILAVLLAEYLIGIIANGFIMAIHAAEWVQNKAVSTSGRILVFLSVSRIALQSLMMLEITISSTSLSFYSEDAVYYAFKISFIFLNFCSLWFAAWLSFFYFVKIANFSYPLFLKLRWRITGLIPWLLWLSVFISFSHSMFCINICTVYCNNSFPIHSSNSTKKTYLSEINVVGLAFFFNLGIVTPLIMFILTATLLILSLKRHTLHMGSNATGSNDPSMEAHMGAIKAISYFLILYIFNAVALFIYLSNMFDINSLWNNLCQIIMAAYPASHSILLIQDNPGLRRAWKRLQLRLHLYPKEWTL
Assay: Inhibition of ECG stimulation of TAS2R39, intracellular calcium (Fluo4-AM fluorescence) assay
Type: cell-based
Conditions: for % inhibition of TAS2R39: HEK293 cells expressing TAS2R39, test solution 0.5 mM ECG and 10 mM test compound in Tyrodes buffer, percentage reduction of ΔF vs ECG alone; for effectiveness as inhibitor of TAS2R39 compared with gallic acid: comparison of % inhibition in Table 1 with gallic acid
Text: Activation of the bitter receptor TAS2R39 causes the release of calcium from the endoplasmic reticulum of those cells containing the receptor. Therefore, changes in calcium levels within cells expressing TAS2R39 serves as a proxy marker for the activity of the receptor. An assay was used to assess the stimulation of TAS2R39 by the flavan-3-ol epicatechin gallate (ECG) and to assess the inhibition of this stimulation of TAS2R39 through the use of various compounds as follows:
HEK293 cells expressing the human bitter receptor TAS2R39 and a G-protein that allows coupling to a calcium readout system were maintained in Dulbecco's Modified Eagle's Medium (DMEM) containing DMEM and 10% tetracycline-free fetal bovine serum (Cambrex) supplemented with blasticidin (5 μg/ml) geneticin (400 μg/ml) and hygromycin (100 μg/ml). Cells were grown and maintained at 37° C./5% CO2.
Cells were cultured in a 75 cm^2 flask, harvested by trypsinisation and resuspended in DMEM medium. 100 μl of cells per well were added to a poly-L-lysine coated μClear 96-well plate, and incubated overnight. Expression of the TAS2R39 gene was then induced by the addition of 100 μl DMEM medium containing 0.5 μg/ml doxycyclin. After another 24-30 hrs the medium was removed and the cells were loaded for 1 hour with 50 μl Tyrodes buffer (140 mM NaCl, 5 mM KCl, 10 mM glucose, 1 mM CaCl2.2H2O, 1 mM MgCl2.6H2O, 20 mM HEPES pH 7.4 (Sigma P8761)) containing 2.5 μM of the fluorescent marker of calcium, Fluo4-AM, followed by a 1-hr incubation at 37° C. The cells were then washed with Tyrodes buffer and finally taken up in 100 μl, Tyrodes buffer.
Test solutions containing 0.5 mM ECG and 10 mM of the test compounds, dissolved in Tyrodes buffer, were prepared and 100 μl of each test solution was added to the wells of the 96-well plate containing the cells. A comparative solution containing only 0.5 mM ECG dissolved in Tyrodes buffer was also prepared and 100 μl was added to a well of the 96-well plate containing the cells.
Intracellular calcium levels were monitored using a Flexstation II 384. The 96-well plate was loaded onto the Flexstation II 384 and fluorescence measurements were carried out at 37° C. at an excitation wavelength of 485 nm and an emission wavelength of 520 nm. Activity of TA52R39 was measured as the change in fluorescence (ΔF) which was calculated by subtracting the […] measured before addition of the test or comparative solution.
Inhibition of TAS2R39 activity was measured as the percentage reduction of ΔF in the presence of ECG alone, compared to ΔF in the presence of ECG plus a test compound. 3,4,5-trihydroxybenzoic acid (gallic acid) was included in the selection of the test compounds.

| Molecule | % inhibition of TAS2R39 | effectiveness as inhibitor of TAS2R39 compared with gallic acid |
| --- | --- | --- |
| COc1ccc(/C=C/C(=O)O)c(OC)c1 [2,4-dimethoxycinnamic acid] | 40% | more effective inhibitors of TAS2R39 than gallic acid |
| COc1cccc(C(=O)O)c1O [2-hydroxy-3-methoxybenzoic acid, reference compound] | 25% |  |
| COc1ccccc1C(=O)O [2-methoxybenzoic acid, reference compound] | 10% |  |
| COc1ccccc1/C=C/C(=O)O [2-methoxycinnamic acid, reference compound] | 0% |  |
| O=C(O)c1cc(O)c(O)c(O)c1 [3,4,5-trihydroxybenzoic acid, reference compound] | 25% |  |
| COc1cc(C(=O)O)cc(OC)c1OC [3,4,5-trimethoxybenzoic acid, reference compound] | 20% |  |
| COc1cc(/C=C/C(=O)O)cc(OC)c1OC [3,4,5-trimethoxycinnamic acid, 3,4,5-trimethoxycinnamic acid] | 70% | more effective inhibitors of TAS2R39 than gallic acid |
| COc1cc(CC(=O)O)cc(OC)c1OC [3,4,5-trimethoxyphenylacetic acid, reference compound] | 25% |  |
| O=C(O)c1ccc(O)c(O)c1 [3,4-dihydroxybenzoic acid, reference compound] | 15% |  |
| O=C(O)/C=C/c1ccc(O)c(O)c1 [3,4-dihydroxycinnamic acid] | 30% | more effective inhibitors of TAS2R39 than gallic acid |
| O=C(O)Cc1ccc(O)c(O)c1 [3,4-dihydroxyphenylacetic acid, reference compound] | 15% |  |
| COc1ccc(C(=O)O)cc1OC [3,4-dimethoxybenzoic acid, reference compound] | 10% |  |
| COc1ccc(/C=C/C(=O)O)cc1OC [3,4-dimethoxycinnamic acid] |  | more effective inhibitors of TAS2R39 than gallic acid |
| COc1cc(/C=C/C(=O)O)cc(OC)c1 [3,5-dimethoxycinnamic acid, reference compound] | 20% |  |
| COc1cc(CCC(=O)O)cc(OC)c1OC [3-(3,4,5-trimethoxyphenyl)propanoic acid] | 35% | more effective inhibitors of TAS2R39 than gallic acid |
| O=C(O)CCc1ccc(O)c(O)c1 [3-(3,4-dihydroxyphenyl) propanoic acid, 3-(3,4-dihydroxyphenyl)propanoic acid] | 30% | more effective inhibitors of TAS2R39 than gallic acid |
| COc1ccc(CCC(=O)O)cc1OC [3-(3,4-dimethoxyphenyl) propanoic acid, 3-(3,4-dimethoxyphenyl)propanoic acid] | 35% | more effective inhibitors of TAS2R39 than gallic acid |
| COc1cc(CCC(=O)O)ccc1O [3-(3-methoxy-4-hydroxyphenyl)propanoic acid] | 35% | more effective inhibitors of TAS2R39 than gallic acid |

| Molecule | % inhibition of TAS2R39 | effectiveness as inhibitor of TAS2R39 compared with gallic acid |
| --- | --- | --- |
| O=C(O)CCc1ccc(O)cc1 [3-(4-hydroxyphenyl) propanoic acid, reference compound] | 25% |  |
| COc1ccc(CCC(=O)O)cc1 [3-(4-methoxyphenyl) propanoic acid, 3-(4-methoxyphenyl)propanoic acid] | 40% | more effective inhibitors of TAS2R39 than gallic acid |
| COc1cc(/C=C/C(=O)O)ccc1O [3-methoxy-4-hydroxycinnamic acid, 3-methoxy-4-hydroxycinnamic acid] | 65% | more effective inhibitors of TAS2R39 than gallic acid |
| COc1cccc(C(=O)O)c1 [3-methoxybenzoic add, reference compound] | 5% |  |
| COc1cccc(/C=C/C(=O)O)c1 [3-methoxycinnamic acid, reference compound] | 0% |  |
| O=C(O)/C=C/c1ccccc1 [3-phenyl propenoic acid (Cinnamic acid), 3-phenyl propenoic acid] | 40% | more effective inhibitors of TAS2R39 than gallic acid |
| O=C(O)CCc1ccccc1 [3-phenylpropanoic acid, reference compound] | 15% |  |
| COc1cc(/C=C/C(=O)O)cc(OC)c1O [4-hydroxy-3,5-dimethoxycinnamic acid, 4-hydroxy-3,5-dimethoxycinnamic acid] | 65% | more effective inhibitors of TAS2R39 than gallic acid |
| O=C(O)c1ccc(O)cc1 [4-hydroxybenzoic acid, reference compound] | 25% |  |
| O=C(O)/C=C/c1ccc(O)cc1 [4-hydroxycinnamic acid] | 40% | more effective inhibitors of TAS2R39 than gallic acid |
| O=C(O)Cc1ccc(O)cc1 [4-hydroxyphenylacetic acid, reference compound] | 20% |  |
| COc1ccc(C(=O)O)cc1 [4-methoxybenzoic acid, reference compound] | 15% |  |
| COc1ccc(/C=C/C(=O)O)cc1 [4-methoxycinnamic acid] | 30% | more effective inhibitors of TAS2R39 than gallic acid |
| COc1ccc(CC(=O)O)cc1 [4-methoxyphenylacetic acid, reference compound] | 15% |  |
| O=C(O)CCCc1ccccc1 [4-phenylbutanoic acid] | 40% | more effective inhibitors of TAS2R39 than gallic acid |
| O=C(O)Cc1ccccc1 [Phenylacetic acid, reference compound] | 5% |  |
| N[C@@H](Cc1ccccc1)C(=O)O [Phenylalamine, reference compound] | 0% |  |
| Benzoic acid [reference compound] | 20% |  |

Source: patent US20100062131A1, “FLAVAN-3-OL CONTAINING FOODSTUFFS” (CONOPCO, INC., D/B/A UNILEVER, priority 2008, published 2010)
